The text below walks through data of ChEMBL document CHEMBL2321704, “Cis-amide isosteric replacement in thienobenzoxepin inhibitors of PI3-kinase” (Bioorg Med Chem Lett, 2013).

Series [1] has as its target T1, Phosphatidylinositol 4,5-bisphosphate 3-kinase catalytic subunit alpha isoform (Homo sapiens, UniProt P42336). The series can be described thus: Inhibition of recombinant PI3Kalpha (unknown origin)-mediated 3,4,5-inositoltriphosphate formation after 30 mins by TAMRA-PIP3-based competitive fluorescence polarization assay.
In series [2] the target is T1, Phosphatidylinositol 4,5-bisphosphate 3-kinase catalytic subunit alpha isoform.
Description: Inhibition of PI3Kalpha-mediated AKT Ser 473 phosphorylation in human PC3 cells
Series [3] is described as follows: Kinetic solubility of the compound by dry down method. The series is classed as physicochemical. The note with it: read-out: Kinetic_solubility.
A short description of series [4]: Clearance in rat liver microsomes. The series is classed as ADME, Microsome. On the technique in general: Liver microsomes are vesicles of endoplasmic reticulum, rich in cytochrome P450 enzymes.
Series [5] in a line: Clearance in human liver microsomes. It counts as ADME, Microsome.
Series [6] can be described thus: Plasma clearance in Sprague-Dawley rat at 1 mg/kg, iv. The series is classed as ADME, organism-based. Set-up: dose 1 mg/kg, route intravenous.
The subject of series [7] is Mus musculus. The series can be described thus: Unbound AUC in nude mouse at 50 mg/kg. It counts as ADME, organism-based. The arrangement: dose 50 mg/kg. The settings on record: in vivo.
Series [8] has as its system Mus musculus. The series can be described thus: Unbound AUC in nude mouse at 25 mg/kg. Set-up: dose 25 mg/kg. The series is classed as ADME, organism-based. The note with it: in vivo.
Series [9] concerns Mus musculus. As to the kind of experiment: Unbound AUC in nude mouse at 100 mg/kg. The series is classed as ADME, organism-based. Set-up: dose 100 mg/kg. The note with it: in vivo.
Series [10] in a line: Apparent permeability from apical to basal side of MDCK cells. The series is classed as ADME, cell-based, Canis lupus familiaris. The settings on record: dog.
Series [11] is described as follows: Thermodynamic solubility of the compound at pH 7.4. It counts as physicochemical. The settings on record: buffer, read-out: Therm_solubility.
The subject of another series is MCF7. The series can be described thus: Antiproliferative activity against human MCF7 cells expressing neo-HER2 after 3 days by CellTiter-Glo assay. It counts as functional, cell-based. The settings on record: MCF7, 72 h.
A further series deals with PC-3. The series can be described thus: Antiproliferative activity against human PC3 cells after 4 days by CellTiter-Glo assay. The settings on record: PC-3, 96 h. The series is classed as functional, cell-based.

≈ marks a conversion by molar mass, not a printed value.

T1 sequence (P42336 whole entry, canonical isoform): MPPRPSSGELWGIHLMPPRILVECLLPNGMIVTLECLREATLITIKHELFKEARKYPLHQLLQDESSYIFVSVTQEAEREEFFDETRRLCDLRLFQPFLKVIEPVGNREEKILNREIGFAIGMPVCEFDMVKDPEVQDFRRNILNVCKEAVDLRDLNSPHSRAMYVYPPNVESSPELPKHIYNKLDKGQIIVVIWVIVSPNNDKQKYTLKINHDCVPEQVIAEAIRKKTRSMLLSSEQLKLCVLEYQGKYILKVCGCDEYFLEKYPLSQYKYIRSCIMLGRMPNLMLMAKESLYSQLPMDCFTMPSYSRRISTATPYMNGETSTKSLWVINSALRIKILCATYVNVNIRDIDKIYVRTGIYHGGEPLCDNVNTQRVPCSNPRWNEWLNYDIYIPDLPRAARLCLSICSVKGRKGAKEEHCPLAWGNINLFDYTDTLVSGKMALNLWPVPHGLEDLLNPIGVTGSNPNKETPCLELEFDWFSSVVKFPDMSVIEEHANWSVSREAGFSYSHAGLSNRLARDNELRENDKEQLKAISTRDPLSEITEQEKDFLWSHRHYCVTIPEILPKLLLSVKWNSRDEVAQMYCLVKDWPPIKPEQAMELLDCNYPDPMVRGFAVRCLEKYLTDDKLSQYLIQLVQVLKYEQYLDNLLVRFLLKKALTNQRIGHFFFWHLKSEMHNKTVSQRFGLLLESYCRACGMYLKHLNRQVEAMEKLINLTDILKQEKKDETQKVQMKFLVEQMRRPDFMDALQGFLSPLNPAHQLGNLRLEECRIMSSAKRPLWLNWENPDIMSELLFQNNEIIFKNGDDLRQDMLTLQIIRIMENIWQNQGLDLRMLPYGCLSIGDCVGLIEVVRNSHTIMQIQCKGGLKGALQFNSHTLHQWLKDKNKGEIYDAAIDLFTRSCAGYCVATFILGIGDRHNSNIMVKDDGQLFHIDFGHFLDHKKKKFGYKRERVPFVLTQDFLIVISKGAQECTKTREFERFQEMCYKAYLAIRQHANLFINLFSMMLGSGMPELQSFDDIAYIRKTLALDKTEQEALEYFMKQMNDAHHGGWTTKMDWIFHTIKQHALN

For the compound `O=c1[nH]nc(-c2cc3c(s2)-c2ccccc2OCC3)n1-c1ccccc1Cl`, the results for the IC50 in series [1] and in series [2] were 1.2 nM and 20 nM, respectively.
Regarding `CC(C)N(C)C(=O)c1cc2c(s1)-c1ccccc1OCC2`, the IC50 (in general, the midpoint of a concentration-inhibition curve) in series [1] was over 2000 nM.
On to `CN(C(=O)c1cc2c(s1)-c1ncccc1OCC2)c1ccccc1Cl`, for which the 50% inhibitory concentration (IC50) in series [1] is 7 nM; in [2] it was over 1000 nM. In addition, in [3], the solubility kinetic turned out to be 41 µM (≈ 15.2 µg/mL).
For `NC(=O)c1ccc2c(c1)OCCc1cc(-c3ncnn3CCO)sc1-2`, the results for the IC50 in series [1] and in series [2] were 15 nM and over 1000 nM, respectively. Moreover, the figures for the CLhep predicted in series [4] and in [5] were 25 mL/min/kg and 10 mL/min/kg, respectively. Besides, the solubility kinetic in [3] was over 200 µM.
With `CC(C)Cn1ncnc1-c1cc2c(s1)-c1ccc(C(N)=O)cc1OCC2`, the IC50 in series [1] was 4 nM; in [2], 279 nM. Moreover, the CLhep predicted in series [4] was 49 mL/min/kg; in [5], 19 mL/min/kg. Further, in [3], the solubility kinetic is over 200 µM. Besides, the clearance (commonly the volume of plasma or blood freed of the substance per unit of time) in series [6] worked out at 112 mL/min/kg.
Regarding `NC(=O)c1ccc2c(c1)OCCc1cc(-c3nncn3-c3ccccc3Cl)sc1-2`, the figures for the concentration for half-maximal inhibition (IC50) in [1] and in series [2] were under 0.5 nM and 60 nM, respectively. The solubility kinetic in series [3] worked out at 9 µM (≈ 3.81 µg/mL).
For `Clc1ccccc1-n1cnnc1-c1cc2c(s1)-c1ccccc1OCC2` the same measures were 7.3 nM, 74 nM and 15 µM (≈ 5.7 µg/mL).
For the compound `NC(=O)c1ccc2c(c1)OCCc1cc(-c3ncnn3CC(F)(F)F)sc1-2`, the IC50 in series [1] is 7 nM; in series [2], 487 nM. The CLhep predicted in [4] is 12 mL/min/kg; in series [5], 7 mL/min/kg. For the same compound, the solubility kinetic in series [3] was over 200 µM. This compound registered a clearance in series [6] of 11 mL/min/kg.
With `Clc1ccccc1-c1ocnc1-c1cc2c(s1)-c1ncccc1OCC2`, the IC50 is 12 nM in [1] and 250 nM in [2]. The solubility kinetic in series [3] was 41 µM (≈ 15.6 µg/mL).
As for `CC(C)n1ncnc1-c1cc2c(s1)-c1ccc(C(N)=O)cc1OCC2`, the fAUC with Mus musculus [7] was 13.6 µM·h; in the series with Mus musculus [8], 5.7 µM·h; in the series on Mus musculus [9], 17.8 µM·h. In addition, the CLhep predicted in [4] was 29 mL/min/kg; in series [5], 10 mL/min/kg. In addition, the Papp A→B (commonly how fast a substance crosses the layer from the apical side) in series [10] is 20 ×10⁻⁶ cm/s. For the same compound, in [11], the solubility thermodynamic was 53 µg/mL (≈ 150 µM). The solubility kinetic in series [3] was over 200 µM. Moreover, the clearance in series [6] stood at 13 mL/min/kg.
As for `NC(=O)c1ccc2c(c1)OCCc1cc(-c3n[nH]cc3-c3ccccc3Cl)sc1-2`, the IC50 in [1] is 1 nM; in [2], 28 nM. For the same compound, the solubility kinetic in [3] worked out at 12 µM (≈ 5.06 µg/mL).
Regarding `CN(C(=O)c1cc2c(s1)-c1ccccc1OCC2)c1ccc(F)cc1F`, the results for the IC50 in series [1] and in series [2] were 52 nM and over 1000 nM, respectively.
`CC(=O)Nc1nc(-c2cc3c(s2)-c2ncccc2OCC3)c(-c2ccccc2Cl)[nH]1`: the results for the IC50 in series [1] and in series [2] were under 1.4 nM and 36 nM, respectively. In addition, in [3], the solubility kinetic is 41 µM (≈ 17.9 µg/mL).
In the same order, the values of `NC(=O)c1ccc2c(c1)OCCc1cc(-c3n[nH]c(=O)n3-c3ccccc3Cl)sc1-2` are under 0.5 nM, 20 nM and 15 µM (≈ 6.58 µg/mL).
As for `CN(C(=O)c1cc2c(s1)-c1ccccc1OCC2)C1CCCCC1`, the IC50 in series [1] came to 885 nM.
For `NC(=O)c1ccc2c(c1)OCCc1cc(-c3ncnn3C3CCC3)sc1-2`, the IC50 is 8 nM in [1] and 563 nM in [2]. Moreover, the figures for the CLhep predicted in [4] and in series [5] were 44 mL/min/kg and 19 mL/min/kg, respectively. In addition, in [3], the solubility kinetic is 37 µM (≈ 13.6 µg/mL). This compound also displayed a clearance in series [6] of 61 mL/min/kg.
Consider `CC(C)(O)Cn1ncnc1-c1cc2c(s1)-c1ccc(C(N)=O)cc1OCC2`, for which the IC50 in series [1] worked out at 4 nM; in series [2], 481 nM. Also, the CLhep predicted was 15 mL/min/kg in series [4] and 11 mL/min/kg in series [5]. The solubility kinetic in [3] was over 200 µM. In series [6], this compound yielded a clearance of 57 mL/min/kg.
Take `NC(=O)c1ccc2c(c1)OCCc1cc(-c3ncnn3-c3ccc(F)cc3F)sc1-2`: the IC50 was 23 nM with MCF7, under 0.5 nM in series [1], 17 nM in series [2] and 180 nM with PC-3. For the same compound, the fAUC came to 0.53 µM·h in the series on Mus musculus [7], 0.26 µM·h with Mus musculus [8] and 0.54 µM·h in the series on Mus musculus [9]. For the same compound, the CLhep predicted in [4] is 24 mL/min/kg; in series [5] it was 7 mL/min/kg. In addition, the Papp A→B in series [10] is 13 ×10⁻⁶ cm/s. For the same compound, the solubility thermodynamic in [11] was under 1 µg/mL. Further, in series [3], the solubility kinetic is over 200 µM. In series [6], this compound showed a clearance of 38 mL/min/kg.
For the compound `CN(C(=O)c1cc2c(s1)-c1ccc(C(N)=O)cc1OCC2)c1ccccc1Cl`, the IC50 in the series on MCF7 was over 4100 nM; in [1], 1.5 nM; in series [2], 100 nM; with PC-3, over 3500 nM. Also, the CLhep predicted was 43 mL/min/kg in series [4] and 18 mL/min/kg in series [5]. Also, the Papp A→B in [10] came out at 2.1 ×10⁻⁶ cm/s.
Take `NC(=O)c1ccc2c(c1)OCCc1cc(-c3nnnn3-c3ccccc3Cl)sc1-2`: the half-maximal inhibitory concentration (IC50) in series [1] is under 0.5 nM; in [2], 42 nM. The solubility kinetic in [3] was over 200 µM.
For the compound `CN(C)CCn1ncnc1-c1cc2c(s1)-c1ccc(C(N)=O)cc1OCC2`, the IC50 in series [1] turned out to be 142 nM. The CLhep predicted in series [4] was 38 mL/min/kg; in series [5], 14 mL/min/kg. In series [3], the solubility kinetic amounted to 128 µM (≈ 49.1 µg/mL).
In the case of `Fc1ccc(-n2ncnc2-c2cc3c(s2)-c2ccccc2OCC3)c(F)c1`, the IC50 was found to be 1.2 nM in series [1] and 110 nM in series [2]. Moreover, in series [3], the solubility kinetic amounted to 4.1 µM (≈ 1.56 µg/mL).
For `Nc1nc(-c2cc3c(s2)-c2ccccc2OCC3)c(-c2ccccc2Cl)s1` the same measures were under 0.5 nM, 23 nM and 4 µM (≈ 1.64 µg/mL).
